Experimental data as given in publication PMC7924852, “The Emericellipsins A–E from an Alkalophilic Fungus Emericellopsis alkalina Show Potent Activity against Multidrug-Resistant Pathogenic Fungi” (Journal of Fungi, 2021).

Experiments:
[1] = test system: Aspergillus niger ATCC 16404; assay: Disc-diffusion antifungal assay; type: cell-based; conditions: 40 µg/disc; A. niger ATCC 16404
A. niger 1133 m [2] = assay: Disc-diffusion antifungal assay; type: cell-based, Aspergillus niger; conditions: 40 µg/disc, pathogenic clinical isolate
A. fumigatus VKM F-37 [3] = assay: Disc-diffusion antifungal assay; type: cell-based, Aspergillus fumigatus; conditions: 40 µg/disc
A. fumigatus 390 m [4] = assay: Disc-diffusion antifungal assay; type: cell-based, Aspergillus fumigatus; conditions: 40 µg/disc, pathogenic clinical isolate
A. terreus 3 K [5] = assay: Disc-diffusion antifungal assay; type: cell-based; conditions: 40 µg/disc
A. terreus 497 [6] = assay: Disc-diffusion antifungal assay; type: cell-based; conditions: 40 µg/disc; A. terreus 497, pathogenic clinical isolate
[7] = test system: reference and clinical strains of Aspergillus; assay: Disc-diffusion antifungal assay, Aspergillus strains; type: cell-based; conditions: disc-diffusion, reference and clinical strains of Aspergillus
A. niger ATCC 16404 = assay: Broth two-fold microdilution MIC (CLSI); type: cell-based, Aspergillus niger; conditions: A. niger ATCC 16404; RPMI 1640 pH 7.0, 35 °C, 48 h, no visible growth
A. niger 1133 m [8] = assay: Broth two-fold microdilution MIC (CLSI); type: cell-based, Aspergillus niger; conditions: A. niger 1133 m clinical isolate; RPMI 1640 pH 7.0, 35 °C, 48 h
A. terreus 3 K [9] = assay: Broth two-fold microdilution MIC (CLSI); type: cell-based; conditions: A. terreus 3 K; RPMI 1640 pH 7.0, 35 °C, 48 h
A. terreus 497 [10] = assay: Broth two-fold microdilution MIC (CLSI); type: cell-based; conditions: A. terreus 497 clinical isolate; RPMI 1640 pH 7.0, 35 °C, 48 h
A. fumigatus VKM F-37 [11] = assay: Broth two-fold microdilution MIC (CLSI); type: cell-based, Aspergillus fumigatus; conditions: A. fumigatus VKM F-37; RPMI 1640 pH 7.0, 35 °C, 48 h
A. fumigatus 390 m [12] = assay: Broth two-fold microdilution MIC (CLSI); type: cell-based, Aspergillus fumigatus; conditions: A. fumigatus 390 m clinical isolate; RPMI 1640 pH 7.0, 35 °C, 48 h
[13] = test system: isolates of Aspergillus spp.; assay: Broth microdilution MIC, ranges over mould isolates; type: cell-based; conditions: range over opportunistic and clinical isolates of Aspergillus spp. (Table 4)

Substance	Zone of Inhibition [1] [mm]	Zone of Inhibition (A. niger 1133 m [2]) [mm]	Zone of Inhibition (A. fumigatus VKM F-37 [3]) [mm]	Zone of Inhibition (A. fumigatus 390 m [4]) [mm]	Zone of Inhibition (A. terreus 3 K [5]) [mm]	Zone of Inhibition (A. terreus 497 [6]) [mm]	antifungal activity against Aspergillus strains (in words) [7]	Minimal Inhibitory Concentration (MIC) (A. niger ATCC 16404)	Minimal Inhibitory Concentration (MIC) (A. niger 1133 m [8])	Minimal Inhibitory Concentration (MIC) (A. terreus 3 K [9]) [µg/mL]	Minimal Inhibitory Concentration (MIC) (A. terreus 497 [10]) [µg/mL]	Minimal Inhibitory Concentration (MIC) (A. fumigatus VKM F-37 [11])	Minimal Inhibitory Concentration (MIC) (A. fumigatus 390 m [12])	MIC range [13] [µg/mL]
Methyldecanoyl-MePro-AHMOD-Ala-Aib-Ile-Iva-βAla-Aib-Glyol [EmiE, emericellipsin E, homologue of emericellipsin A, nonribosomal peptaibol]	0	0	0	0	0	0	totally inactive	˃64 µg/mL	˃64 µg/mL	32	64	˃64 µg/mL	˃64 µg/mL	> 64
Methyldecanoyl-MePro-AHMOD-Ser-Aib-Ile-Iva-βAla-Alaol-Glyol [EmiC, emericellipsin C, homologue of emericellipsin A, nonribosomal peptaibol]	9 ± 0.31	0	0	0	0	0	low activity only against A. niger strains	32 µg/mL	32 µg/mL	8	8	16 µg/mL	16 µg/mL	
Methyldecanoyl-MePro-AHMOD-Ala-Aib-Ile-Aib-βAla-Alaol-Glyol [EmiB, emericellipsin B, homologue of emericellipsin A, nonribosomal peptaibol]	10 ± 0.13	11 ± 0.170	0	0	0	0	low activity only against A. niger strains	8 µg/mL	8 µg/mL	4	4	8 µg/mL	8 µg/mL	4 to 8
